# Laboratory results: ChEMBL document CHEMBL1275577, “Study of the in vitro activities of rifaximin and comparator agents against 536 anaerobic intestinal bacteria from the perspective of potential utility in pathology involving bowel flora” (Antimicrob Agents Chemother, 2009)
# How the values were obtained:
# [1] = system: Coprobacillus cateniformis; assay: Antimicrobial activity against Coprobacillus cateniformis by Wadsworth agar dilution method; format: functional
# [2] = system: Ruminococcus flavefaciens; assay: Antimicrobial activity against Ruminococcus flavefaciens by Wadsworth agar dilution method; format: functional
# [3] = system: Bifidobacterium pseudolongum; assay: Antimicrobial activity against Bifidobacterium pseudolongum by Wadsworth agar dilution method; format: functional
# [4] = system: [Clostridium] innocuum; assay: Antimicrobial activity against Clostridium innocuum by Wadsworth agar dilution method; format: functional
# [5] = system: Ruminococcus torques; assay: Antimicrobial activity against Ruminococcus torques by Wadsworth agar dilution method; format: functional; conditions: Mediterraneibacter torques
# [6] = system: Ruminococcus lactaris; assay: Antimicrobial activity against Ruminococcus lactaris by Wadsworth agar dilution method; format: functional
# [7] = system: Eggerthella lenta; assay: Antimicrobial activity against Eggerthella lenta by Wadsworth agar dilution method; format: functional
# [8] = system: Desulfovibrio piger; assay: Antimicrobial activity against Desulfovibrio piger by Wadsworth agar dilution method; format: functional
# [9] = system: Limosilactobacillus fermentum; assay: Antimicrobial activity against Lactobacillus fermentum by Wadsworth agar dilution method; format: functional
# [10] = system: Actinomyces viscosus; assay: Antimicrobial activity against Actinomyces viscosus by Wadsworth agar dilution method; format: functional
# [11] = system: Clostridioides difficile; assay: Antimicrobial activity against Clostridium difficile by Wadsworth agar dilution method; format: functional
# [12] = system: Lactobacillus acidophilus; assay: Antimicrobial activity against Lactobacillus acidophilus by Wadsworth agar dilution method; format: functional
# [13] = system: Eubacterium biforme; assay: Antimicrobial activity against Eubacterium biforme by Wadsworth agar dilution method; format: functional; conditions: Holdemanella biformis
# [14] = system: Schaalia odontolytica; assay: Antimicrobial activity against Actinomyces odontolyticus by Wadsworth agar dilution method; format: functional
# [15] = system: Lacticaseibacillus rhamnosus; assay: Antimicrobial activity against Lactobacillus rhamnosus by Wadsworth agar dilution method; format: functional
# [16] = system: Propionibacterium propionicum; assay: Antimicrobial activity against Propionibacterium propionicum by Wadsworth agar dilution method; format: functional; conditions: Arachnia propionica
# [17] = system: Eubacterium rectale; assay: Antimicrobial activity against Eubacterium rectale by Wadsworth agar dilution method; format: functional; conditions: Agathobacter rectalis
# [18] = system: Prevotella melaninogenica; assay: Antimicrobial activity against Prevotella melaninogenica by Wadsworth agar dilution method; format: functional
# [19] = system: Cutibacterium acnes; assay: Antimicrobial activity against Propionibacterium acnes by Wadsworth agar dilution method; format: functional
# [20] = system: Clostridium cocleatum; assay: Antimicrobial activity against Clostridium cocleatum by Wadsworth agar dilution method; format: functional; conditions: Thomasclavelia cocleata
# [21] = system: Parvimonas micra; assay: Antimicrobial activity against Peptostreptococcus micros by Wadsworth agar dilution method; format: functional
# [22] = system: Limosilactobacillus reuteri; assay: Antimicrobial activity against Lactobacillus reuteri by Wadsworth agar dilution method; format: functional
# [23] = system: Thomasclavelia ramosa; assay: Antimicrobial activity against Clostridium ramosum by Wadsworth agar dilution method; format: functional
# [24] = system: Fusobacterium mortiferum; assay: Antimicrobial activity against Fusobacterium mortiferum by Wadsworth agar dilution method in presence of beta-lactamase inhibitor Sulbactam; format: functional
# [25] = system: Peptoniphilus harei; assay: Antimicrobial activity against Peptoniphilus harei by Wadsworth agar dilution method; format: functional
# [26] = system: Parabacteroides distasonis; assay: Antimicrobial activity against Parabacteroides distasonis by Wadsworth agar dilution method; format: functional
# [27] = system: Eubacterium callanderi; assay: Antimicrobial activity against Eubacterium callanderi by Wadsworth agar dilution method; format: functional
# [28] = system: Anaerococcus prevotii; assay: Antimicrobial activity against Anaerococcus prevotii by Wadsworth agar dilution method; format: functional
# [29] = system: Bacteroides stercoris; assay: Antimicrobial activity against Bacteroides stercoris by Wadsworth agar dilution method; format: functional
# [30] = system: Clostridium tertium; assay: Antimicrobial activity against Clostridium tertium by Wadsworth agar dilution method; format: functional
# [31] = system: Clostridium leptum; assay: Antimicrobial activity against Clostridium leptum by Wadsworth agar dilution method; format: functional
# [32] = system: Catenibacterium mitsuokai; assay: Antimicrobial activity against Catenibacterium mitsuokai by Wadsworth agar dilution method; format: functional
# [33] = system: Bilophila wadsworthia; assay: Antimicrobial activity against Bilophila wadsworthia by Wadsworth agar dilution method in presence of 1% pyruvic acid; format: functional
# [34] = system: Paeniclostridium sordellii; assay: Antimicrobial activity against Clostridium sordellii by Wadsworth agar dilution method; format: functional; conditions: Paraclostridium sordellii
# [35] = system: Clostridium symbiosum; assay: Antimicrobial activity against Clostridium symbiosum by Wadsworth agar dilution method; format: functional
# [36] = Antimicrobial activity against Bifidobacterium infantis by Wadsworth agar dilution method; format: functional, Bifidobacterium longum subsp. infantis; conditions: Bifidobacterium longum
# [37] = system: Anaerococcus tetradius; assay: Antimicrobial activity against Anaerococcus tetradius by Wadsworth agar dilution method; format: functional
# [38] = system: Ruminococcus obeum; assay: Antimicrobial activity against Ruminococcus obeum by Wadsworth agar dilution method; format: functional; conditions: Blautia obeum
# [39] = system: Hoylesella loescheii; assay: Antimicrobial activity against Prevotella loescheii by Wadsworth agar dilution method; format: functional
# [40] = system: Clostridium perfringens; assay: Antimicrobial activity against Clostridium perfringens by Wadsworth agar dilution method; format: functional
# [41] = system: Prevotella disiens; assay: Antimicrobial activity against Prevotella disiens by Wadsworth agar dilution method; format: functional
# [42] = system: Clostridium beijerinckii; assay: Antimicrobial activity against Clostridium beijerinckii by Wadsworth agar dilution method; format: functional
# [43] = system: Schaalia meyeri; assay: Antimicrobial activity against Actinomyces meyeri by Wadsworth agar dilution method; format: functional
# [44] = system: Flavonifractor plautii; assay: Antimicrobial activity against Clostridium orbiscindens by Wadsworth agar dilution method; format: functional
# [45] = system: Clostridium lactatifermentans; assay: Antimicrobial activity against Clostridium lactatifermentans by Wadsworth agar dilution method; format: functional; conditions: Anaerotignum lactatifermentans
# [46] = system: Lactobacillus sp.; assay: Antimicrobial activity against Lactobacillus sp. by Wadsworth agar dilution method; format: functional
# [47] = system: Clostridium nexile; assay: Antimicrobial activity against Clostridium nexile by Wadsworth agar dilution method; format: functional; conditions: Faecalimonas nexilis
structure (smiles),measurement,setting,value
CO[C@H]1/C=C/O[C@@]2(C)Oc3c(C)c(O)c4c(O)c(c5c(nc6cc(C)ccn65)c4c3C2=O)NC(=O)/C(C)=C\C=C\[C@H](C)[C@H](O)[C@@H](C)[C@@H](O)[C@@H](C)[C@H](OC(C)=O)[C@@H]1C [RIFAXIMIN],MIC50,[1],0.5 µg/mL
same,MIC90,[1],> 1020 µg/mL
same,MIC,[2],0.25 µg/mL
same,MIC50,[2],0.25 µg/mL
same,MIC90,[2],4 µg/mL
same,MIC50,[3],0.5 µg/mL
same,MIC90,[3],> 1020 µg/mL
same,MIC50,[4],> 1020 µg/mL
same,MIC90,[4],> 1020 µg/mL
same,MIC,[5],0.25 µg/mL
same,MIC50,[5],0.25 µg/mL
same,MIC90,[5],4 µg/mL
same,MIC,[6],0.25 µg/mL
same,MIC50,[6],0.25 µg/mL
same,MIC90,[6],4 µg/mL
same,MIC50,[7],0.5 µg/mL
same,MIC90,[7],> 1020 µg/mL
same,MIC50,[8],16 µg/mL
same,MIC90,[8],332 µg/mL
same,MIC50,[9],0.5 µg/mL
same,MIC90,[9],> 1020 µg/mL
same,MIC50,[10],0.5 µg/mL
same,MIC90,[10],> 1020 µg/mL
same,MIC50,[11],0.25 µg/mL
same,MIC90,[11],0.25 µg/mL
same,MIC50,[12],0.5 µg/mL
same,MIC90,[12],> 1020 µg/mL
same,MIC50,[13],0.5 µg/mL
same,MIC90,[13],> 1020 µg/mL
same,MIC50,[14],0.5 µg/mL
same,MIC90,[14],> 1020 µg/mL
same,MIC50,[15],0.5 µg/mL
same,MIC90,[15],> 1020 µg/mL
same,MIC50,[16],0.5 µg/mL
same,MIC90,[16],> 1020 µg/mL
same,MIC50,[17],0.5 µg/mL
same,MIC90,[17],> 1020 µg/mL
same,MIC,[18],0.25 µg/mL
same,MIC50,[18],0.25 µg/mL
same,MIC90,[18],0.5 µg/mL
same,MIC50,[19],0.5 µg/mL
same,MIC90,[19],> 1020 µg/mL
same,MIC,[20],0.25 µg/mL
same,MIC50,[20],0.25 µg/mL
same,MIC90,[20],> 1020 µg/mL
same,MIC,[21],0.25 µg/mL
same,MIC50,[21],0.25 µg/mL
same,MIC90,[21],4 µg/mL
same,MIC50,[22],0.5 µg/mL
same,MIC90,[22],> 1020 µg/mL
same,MIC,[23],0.25 µg/mL
same,MIC50,[23],0.25 µg/mL
same,MIC90,[23],> 1020 µg/mL
same,MIC50,[24],16 µg/mL
same,MIC90,[24],> 1020 µg/mL
same,MIC,[25],0.25 µg/mL
same,MIC50,[25],0.25 µg/mL
same,MIC90,[25],4 µg/mL
same,MIC,[26],0.25 µg/mL
same,MIC50,[26],0.25 µg/mL
same,MIC90,[26],1 µg/mL
same,MIC50,[27],0.5 µg/mL
same,MIC90,[27],> 1020 µg/mL
same,MIC,[28],0.25 µg/mL
same,MIC50,[28],0.25 µg/mL
same,MIC90,[28],4 µg/mL
same,MIC,[29],0.25 µg/mL
same,MIC50,[29],0.25 µg/mL
same,MIC90,[29],0.5 µg/mL
same,MIC,[30],0.25 µg/mL
same,MIC50,[30],0.25 µg/mL
same,MIC90,[30],> 1020 µg/mL
same,MIC,[31],0.25 µg/mL
same,MIC50,[31],0.25 µg/mL
same,MIC90,[31],> 1020 µg/mL
same,MIC50,[32],0.5 µg/mL
same,MIC90,[32],> 1020 µg/mL
same,MIC,[33],0.25 µg/mL
same,MIC50,[33],0.25 µg/mL
same,MIC90,[33],0.5 µg/mL
same,MIC,[34],0.25 µg/mL
same,MIC50,[34],0.25 µg/mL
same,MIC90,[34],> 1020 µg/mL
same,MIC,[35],0.25 µg/mL
same,MIC50,[35],0.25 µg/mL
same,MIC90,[35],> 1020 µg/mL
same,MIC50,[36],0.5 µg/mL
same,MIC90,[36],> 1020 µg/mL
same,MIC,[37],0.25 µg/mL
same,MIC50,[37],0.25 µg/mL
same,MIC90,[37],4 µg/mL
same,MIC,[38],0.25 µg/mL
same,MIC50,[38],0.25 µg/mL
same,MIC90,[38],4 µg/mL
same,MIC,[39],0.25 µg/mL
same,MIC50,[39],0.25 µg/mL
same,MIC90,[39],0.5 µg/mL
same,MIC50,[40],0.25 µg/mL
same,MIC90,[40],0.25 µg/mL
same,MIC,[41],0.25 µg/mL
same,MIC50,[41],0.25 µg/mL
same,MIC90,[41],0.5 µg/mL
same,MIC,[42],0.25 µg/mL
same,MIC50,[42],0.25 µg/mL
same,MIC90,[42],> 1020 µg/mL
same,MIC50,[43],0.5 µg/mL
same,MIC90,[43],> 1020 µg/mL
same,MIC50,[44],> 1020 µg/mL
same,MIC90,[44],> 1020 µg/mL
same,MIC,[45],0.25 µg/mL
same,MIC50,[45],0.25 µg/mL
same,MIC90,[45],> 1020 µg/mL
same,MIC50,[46],0.5 µg/mL
same,MIC90,[46],> 1020 µg/mL
same,MIC,[47],0.25 µg/mL
same,MIC50,[47],0.25 µg/mL
same,MIC90,[47],> 1020 µg/mL
